{
  "source": "patent US10179134B2",
  "about": "“Polymeric nanoparticles in a thermosensitive gel for coital-independent vaginal prophylaxis of HIV” (Creighton University, priority 2012, dated 2019)",
  "origin": "cited, not measured here",
  "tested_on": "HeLa cells",
  "data": [
    {"smiles": "O=C1Nc2ccc(Cl)cc2[C@@](C#CC2CC2)(C(F)(F)F)O1", "note": "[efavirenz]", "values": [
      {"measurement": "concentration above which toxic to the HeLa cells", "value": "higher than 25 μM"}
    ]}
  ]
}
